Data on 26 compounds can be found in patent US20230116972A1, “CD38 MODULATORS AND METHODS OF USE THEREOF” (Cytokinetics, Inc., priority 2021, published 2023).

Experiment [1] concerns the target T1, mouse CD38 (Mus musculus, UniProt P56528).
T1 sequence (P56528 1-304): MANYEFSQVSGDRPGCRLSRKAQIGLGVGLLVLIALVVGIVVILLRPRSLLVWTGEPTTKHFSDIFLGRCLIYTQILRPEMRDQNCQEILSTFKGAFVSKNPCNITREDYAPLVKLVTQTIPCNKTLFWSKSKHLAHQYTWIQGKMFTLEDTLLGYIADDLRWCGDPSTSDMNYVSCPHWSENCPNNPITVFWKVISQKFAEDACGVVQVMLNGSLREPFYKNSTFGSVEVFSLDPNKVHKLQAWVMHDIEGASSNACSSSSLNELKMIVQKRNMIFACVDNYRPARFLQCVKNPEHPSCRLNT
The experiment can be described thus: mouse recombinant CD38 enzyme assay (hydrolysis of NAD+). The class given is biochemical. The settings on record: read-out: mCD38 BioChem IC50. How it is done:
(§1) Compounds described herein were assayed for their ability to inhibit the hydrolysis of NAD+ by the protein CD38. The human and mouse recombinant enzyme assays measure the inhibition of the enzyme activity by compounds using recombinant enzymes and substrates in a buffered cell-free system. The assay conditions closely mimic cellular environments. Dose responses were measured using an assay to detect the hydrolysis of NAD+. All experiments were performed in the 384-well format. […] Enzyme reactions were initiated with the addition of 10 μL of a solution containing NAD+ substrate. Subsequent detection of remaining NAD+ was determined by first converting NAD+ to NADH using alcohol dehydrogenase, then using the resulting NADH to reduce resazurine to the fluorescent product resorufin. […] Following an incubation of 60 min at ambient temperature, 10 μL of 120 mM ethanol+20 U/ml alcohol dehydrogenase+30 mM semicarbazide+0.03 mM CD38 inhibitor in 50 mM HEPES, pH 7.5, 0.2 mg/ml BSA, was added and incubated at ambient temperature for 15 min. Then 10 μl 0.32 mM NaOH was added to stop the ADH reaction (plates incubated at ambient temperature for 15 min), followed by 30 μL of 0.05 mM resazurine+1000 mU/ml Diaphorase in 200 mM Tris-HCl, pH 7.7 for 15 min at ambient temperature. The plates were read for fluorescence (Excitation/Emission=540 nm/590 nm) using an EnVision plate reader. […] Note that, in Table 4, the “Compound No” corresponds to the compound numbers in Table 1.

Experiment [2] addresses T2, human CD38 (Homo sapiens, UniProt P28907).
T2 sequence (P28907 1-300): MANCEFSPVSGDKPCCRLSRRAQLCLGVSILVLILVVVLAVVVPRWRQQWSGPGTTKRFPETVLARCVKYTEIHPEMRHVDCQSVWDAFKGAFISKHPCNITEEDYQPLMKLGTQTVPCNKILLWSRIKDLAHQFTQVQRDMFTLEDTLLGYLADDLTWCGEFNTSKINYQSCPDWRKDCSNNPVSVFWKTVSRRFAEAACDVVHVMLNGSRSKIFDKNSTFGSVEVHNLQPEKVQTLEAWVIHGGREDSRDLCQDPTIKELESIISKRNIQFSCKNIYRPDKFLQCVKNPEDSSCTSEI
The experiment can be described thus: human recombinant CD38 enzyme assay (hydrolysis of NAD+). The class given is biochemical. The settings on record: human recombinant CD38, 0.4 nM enzyme, 62.5 μM NAD+; read-out: hCD38 BioChem IC50. How it is done: as §1

As a reminder, the IC50 is the point on the concentration scale where inhibition reaches its midpoint. `Cn1cncc1-c1nc(C(=O)Nc2ccc(C(F)F)nc2)cc(C2CCC2)n1` [Compound 183, 6-cyclobutyl-N-(6-(difluoromethyl)pyridin-3-yl)-2-(1-methyl-1H-imidazol-5-yl)pyrimidine-4-carboxamide]: the IC50 in experiment [1] is 2 nM; in experiment [2], 7 nM.
With `CO[C@H]1CC[C@H](NC(=O)c2cc(C3CCC3)nc(-n3ccnc3)n2)CC1` [Compound 184, 6-cyclobutyl-2-(1H-imidazol-1-yl)-N-((1r,4r)-4-methoxycyclohexyl)pyrimidine-4-carboxamide], the IC50 in experiment [1] is 16 nM; in experiment [2] it was 56 nM.
In the case of `O=C(NC1CCC(F)(F)CC1)c1cc(C2CCC2)nc(-n2ccnc2)n1` [Compound 185, 6-cyclobutyl-N-(4,4-difluorocyclohexyl)-2-(1H-imidazol-1-yl)pyrimidine-4-carboxamide], the IC50 in experiment [1] turned out to be 14 nM; in experiment [2] it was 30 nM.
In the same order, the values of `O=C(Nc1ccc(C(F)F)nc1)c1cc(C2CCC2)nc(-n2ccnc2)n1` [Compound 186, 6-cyclobutyl-N-(6-(difluoromethyl)pyridin-3-yl)-2-(1H-imidazol-1-yl)pyrimidine-4-carboxamide] are 5 nM and 10 nM.
Regarding `CC(C)(C)c1cc(-n2ccnc2)nc(C(=O)Nc2ccc(C(F)F)nc2)n1` [Compound 188, 4-(tert-butyl)-N-(6-(difluoromethyl)pyridin-3-yl)-6-(1H-imidazol-1-yl)pyrimidine-2-carboxamide], the IC50 came to 661 nM in experiment [1] and 1970 nM in experiment [2].
The like results for `Cn1cncc1-c1cc(C(C)(C)C)nc(C(=O)Nc2ccc(C(F)(F)F)nc2)n1` [Compound 190, 4-(tert-butyl)-6-(1-methyl-1H-imidazol-5-yl)-N-(6-(trifluoromethyl)pyridin-3-yl)pyrimidine-2-carboxamide] were, in that order, 427 nM and 502 nM.
`COc1cc(-n2ccnc2)nc(C(=O)N[C@H]2CC[C@H](OC)CC2)n1` [Compound 208, 4-(1H-imidazol-1-yl)-6-methoxy-N-((1r,4r)-4-methoxycyclohexyl)pyrimidine-2-carboxamide]: the IC50 is 531 nM in experiment [1] and 961 nM in experiment [2].
In the same order, the values of `O=C(N[C@H]1C[C@@H](c2ccccc2)C1)c1nccc(-n2ccnc2)n1` [Compound 212, 4-(1H-imidazol-1-yl)-N-((1s,3s)-3-phenylcyclobutyl)pyrimidine-2-carboxamide] are 105 nM and 833 nM.
The like results for `COCCO[C@H]1C[C@H](NC(=O)c2nccc(-c3cncn3C)n2)C1` [Compound 222, N-((1r,3r)-3-(2-methoxyethoxy)cyclobutyl)-4-(1-methyl-1H-imidazol-5-yl)pyrimidine-2-carboxamide] were, in that order, 203 nM and 933 nM.
Turning to `COCCO[C@H]1C[C@H](NC(=O)c2nccc(-n3ccnc3)n2)C1` [Compound 223, 4-(1H-imidazol-1-yl)-N-((1r,3r)-3-(2-methoxyethoxy)cyclobutyl)pyrimidine-2-carboxamide], the IC50 in experiment [1] came to 459 nM; in experiment [2], 1630 nM.
Regarding `Cn1cncc1-c1ccnc(C(=O)N[C@H]2CC[C@@](O)(c3ccccc3)CC2)n1` [Compound 253, N-((1r,4r)-4-hydroxy-4-phenylcyclohexyl)-4-(1-methyl-1H-imidazol-5-yl)pyrimidine-2-carboxamide], the IC50 was determined as 124 nM in experiment [1] and 1700 nM in experiment [2].
The like results for `O=C(NC1CN(c2ccccc2)C1)c1nccc(-n2ccnc2)n1` [Compound 262, 4-(1H-imidazol-1-yl)-N-(1-phenylazetidin-3-yl)pyrimidine-2-carboxamide] were, in that order, 232 nM and 1840 nM.
Take `Cn1cncc1-c1ccnc(C(=O)N[C@H]2C[C@@H](c3ccnc(C(F)(F)F)c3)C2)n1` [Compound 266, 4-(1-methyl-1H-imidazol-5-yl)-N-((1s,3s)-3-(2-(trifluoromethyl)pyridin-4-yl)cyclobutyl)pyrimidine-2-carboxamide]: the IC50 came to 327 nM in experiment [1] and 708 nM in experiment [2].
In the same order, the values of `O=C(N[C@H]1C[C@@H](c2ccnc(C(F)(F)F)c2)C1)c1nccc(-n2ccnc2)n1` [Compound 271, 4-(1H-imidazol-1-yl)-N-((1s,3s)-3-(2-(trifluoromethyl)pyridin-4-yl)cyclobutyl)pyrimidine-2-carboxamide] are 415 nM and 2150 nM.
In the same order, the values of `O=C(N[C@H]1C[C@@H](c2ccc(C(F)(F)F)nc2)C1)c1nccc(-n2ccnc2)n1` [Compound 272, 4-(1H-imidazol-1-yl)-N-((1s,3s)-3-(6-(trifluoromethyl)pyridin-3-yl)cyclobutyl)pyrimidine-2-carboxamide] are 224 nM and 1340 nM.
Consider `Cn1cncc1-c1ccnc(C(=O)NC2CCC(C)(C)OC2)n1` (stereo not shown) [Compound 278, N-(6,6-dimethyltetrahydro-2H-pyran-3-yl)-4-(1-methyl-1H-imidazol-5-yl)pyrimidine-2-carboxamide], for which the results for the IC50 in experiment [1] and in experiment [2] were 67.9 nM and 490 nM, respectively.
As to `O=C(NC1CC2(COC2)C1)c1nccc(-n2ccnc2)n1` [Compound 290, 4-(1H-imidazol-1-yl)-N-(2-oxaspiro[3.3]heptan-6-yl)pyrimidine-2-carboxamide], the IC50 in experiment [1] was found to be 191 nM; in experiment [2], 1220 nM.
The like results for `CO[C@H]1C[C@H](NC(=O)c2nccc(-c3cncn3C)n2)C1` [Compound 297, N-((1r,3r)-3-methoxycyclobutyl)-4-(1-methyl-1H-imidazol-5-yl)pyrimidine-2-carboxamide] were, in that order, 90.8 nM and 414 nM.
In the same order, the values of `CO[C@H]1CC[C@H](NC(=O)c2nc(-c3cncn3C)cnc2C)CC1` [Compound 298, N-((1r,4r)-4-methoxycyclohexyl)-3-methyl-6-(1-methyl-1H-imidazol-5-yl)pyrazine-2-carboxamide] are 166 nM and 319 nM.
The like results for `CCO[C@H]1C[C@H](NC(=O)c2nccc(-n3ccnc3)n2)C1` [Compound 301, N-((1r,3r)-3-ethoxycyclobutyl)-4-(1H-imidazol-1-yl)pyrimidine-2-carboxamide] were, in that order, 199 nM and 621 nM.
Take `Cn1cncc1-c1ccnc(C(=O)N[C@@H]2CC[C@@H](O)C2)n1` [Compound 302, N-((1R,3R)-3-hydroxycyclopentyl)-4-(1-methyl-1H-imidazol-5-yl)pyrimidine-2-carboxamide]: the IC50 in experiment [1] stood at 118 nM; in experiment [2], 369 nM.
In the same order, the values of `O=C(N[C@H]1CC[C@H](O)C1)c1nccc(-n2ccnc2)n1` [Compound 304, N-((1S,3S)-3-hydroxycyclopentyl)-4-(1H-imidazol-1-yl)pyrimidine-2-carboxamide] are 244 nM and 1270 nM.
In the same order, the values of `Cn1cncc1-c1ccnc(C(=O)N[C@H]2CC[C@H](O)C2)n1` [Compound 305, N-((1S,3S)-3-hydroxycyclopentyl)-4-(1-methyl-1H-imidazol-5-yl)pyrimidine-2-carboxamide] are 62.4 nM and 485 nM.
As for `Cn1cncc1-c1ccnc(C(=O)NC2CC3(COC3)C2)n1` [Compound 306, 4-(1-methyl-1H-imidazol-5-yl)-N-(2-oxaspiro[3.3]heptan-6-yl)pyrimidine-2-carboxamide], the IC50 in experiment [1] came to 81.7 nM; in experiment [2], 357 nM.
For `Cn1cncc1-c1ccnc(C(=O)N[C@H]2C[C@](O)(c3ccccc3)C2)n1` [Compound 310, N-((1s,3s)-3-hydroxy-3-phenylcyclobutyl)-4-(1-methyl-1H-imidazol-5-yl)pyrimidine-2-carboxamide], the IC50 came out at 105 nM in experiment [1] and 354 nM in experiment [2].
Take `CO[C@H]1C[C@H](NC(=O)c2nccc(-n3ccnc3)n2)C1` [Compound 313, 4-(1H-imidazol-1-yl)-N-((1r,3r)-3-methoxycyclobutyl)pyrimidine-2-carboxamide]: the figures for the IC50 in experiment [1] and in experiment [2] were 198 nM and 761 nM, respectively.
